According to US8008492B2, “Compounds that act as a vehicle for delivery through the blood-brain barrier and charge delivery vehicle constructions” (priority 2006, dated 2011):

Experiments:
[1] = Parallel artificial membrane permeability assay (PAMPA); type: in vitro ADME, porcine; settings: 200 μM initial, pH 7.4, 4 hours, room temperature; for Effective permeability Pe: triplicate
Excerpt: Parallel artificial membrane permeability assay (PAM PA). The evaluation method chosen is the Parallel Artificial Membrane Permeability Assay (PAMPA), which allows to predict or evaluate only this transport mechanism. In general terms, this method is simple, automatizable with high throughput, has a low cost and require only a small amount of test compound. The PAMPA method originally introduced by Kansy at Roche uses an artificial membrane in the form of filter supported phospholipids bilayers ([…] al., “Physicochemical high throughput screening: Parallel artificial membrane permeability assay in the description of the absorption processes” J. Med. Chem. 1998, vol. 41, pp. 1007-1010). The phospholipid membrane mimics the cell membrane, but has no means for active or paracellular transport of drug molecules. It is a very convenient tool to evaluate the transport of compounds by passive diffusion. This technique allows the evaluation of pure compounds, crudes or even mixtures of compounds. PAMPA assay is used to determine the ability of the BBB shuttle-cargo constructs to cross the BBB by passive diffusion. […] The compound of interest was dissolved to the desired concentration (200 μM). The PAMPA sandwich was separated and the donor well was filled with 200 μL of the compound solution to be studied. The acceptor plate was placed into the donor plate making sure that the underside of membrane was in contact with buffer. 4 μL of mixture of phospholipids (20 mg/mL) in dodecane were added into each well and 200 μL of buffer solution were added to the each acceptor well. The plate was covered and incubated at room temperature in a saturated humidity atmosphere for 4 hours under orbital agitation at 100 rpm. […] The transport was also confirmed by MALDI-TOF spectrometry and HPLC-MS of aliquotes of the acceptor wells. The mixture of phospholipids used is a porcine polar brain lipid extract. […] The effective permeability was calculated using the following equation: [formula] where: • t time (hours) • CA(t) Compound concentration at the acceptor well at time t • CD(t0) Compound concentration at the donor well at 0 h As a control, the transport of propranolol was evaluated in parallel and a mass balance was calculated for all the studied compounds in order to detect if retention in the phospholipids occur. The different compounds were evaluated by PAMPA assay.

[2] = Immobilized artificial membrane chromatography (IAMC); type: physicochemical; settings: isocratic, phosphate buffer pH 7.4 and 20% MeCN
Excerpt: To evaluate the BBB-shuttles and BBB-shuttle-cargo constructs, a chromatographic technique, IAMC (immobilized artificial membrane chromatography) developed by Pidgeon was used (cf. A. Albert, Chemical aspects of selective toxicity. Nature 1958, vol. 182, pp. 421-423). This technique uses phospholipid molecules covalently immobilized to silica particles at high density as the stationary phase. It has been used to purify membrane proteins, to immobilize enzymes and to predict transport across biological barriers. […] IAMC interactions include ionic, lipophilic and hydrogen bonding interactions that can be combined under a parameter known as phospholipophilicity. […] The compounds were detected by UV absorption at 220 nm. […] The retention times (tr) were transformed into capacity factors (kIAM) according to the following equation: kIAM=(tr−t0)/t0, where tr is the retention time of the studied compound and t0 is the retention time of a compound that would not be retained by the column (e.g. citric acid). As a control, propranolol was studied. BBB-shuttles and the BBB-shuttle-cargo constructs were also evaluated by IAMC (Immobilized Artificial Membrane Chromatography), a chromatographic technique that measures the phospholipophilicity of our compounds, their tendency to interact with phosphatidylcholine covalently immobilized. See results in Table 6 and 7.

Row | Structure (SMILES) | Log Pe ([1]; baicalin constructs) | Effective permeability Pe ([1]; baicalin constructs) | Capacity factor kIAM ([2]; baicalin constructs) | Log Pe ([1]; dopamine constructs) | Effective permeability Pe ([1]; dopamine constructs) | Capacity factor kIAM ([2]; dopamine constructs)
1 | CCCCCCC1C(=O)NC(Cc2ccc(NC(=O)C3OC(Oc4cc5oc(-c6ccccc6)cc(=O)c5c(O)c4O)C(O)C(O)C3O)cc2)C(=O)N1C (centres unmarked) [Compound 5f, DKP Phe(p-NH—CO-baicalin)-N-MeOct] | −6.3 | 4.97 10^−7 cm/s | 10.47 | – | – | –
2 | CN1C(=O)C(Cc2ccc(NCC(=O)NCCc3ccc(O)c(O)c3)cc2)NC(=O)C1Cc1ccc2ccc3cccc4ccc1c2c34 (centres unmarked) [Compound 6d, DKP Phe(p-NH—CH2—CO—NH-dopamine)-N-Me(1PyrenylAla)] | – | – | – | −7.7 | 1.90 10^−8 cm/s | >100
3 | CN1C(=O)C(Cc2ccc(NC(=O)C3OC(Oc4cc5oc(-c6ccccc6)cc(=O)c5c(O)c4O)C(O)C(O)C3O)cc2)NC(=O)C1Cc1ccc2ccc3cccc4ccc1c2c34 (centres unmarked) [Compound 5d, DKP Phe(p-NH—CO-baicalin)-N-Me1PyrenylAla] | −8.7 | 0.19 10^−8 cm/s | >100 | – | – | –
4 | CCCCCCC1C(=O)NC(Cc2ccc(NCC(=O)NCCc3ccc(O)c(O)c3)cc2)C(=O)N1C (centres unmarked) [Compound 6f, DKP Phe(p-NH—CH2—CO—NH-dopamine)-N-MeOct] | – | – | – | −6.5 | 32.1 10^−8 cm/s | 15.47
5 | CN1C(=O)C(Cc2ccc(NC(=O)C3OC(Oc4cc5oc(-c6ccccc6)cc(=O)c5c(O)c4O)C(O)C(O)C3O)cc2)NC(=O)C1Cc1ccc2ccccc2c1 (centres unmarked) [Compound 5c, DKP Phe(p-NH—CO-baicalin)-N-Me2Nal] | −5.4 | 3.70 10^−6 cm/s | 10.66 | – | – | –
6 | O=C(O)[C@H]1O[C@@H](Oc2cc3oc(-c4ccccc4)cc(=O)c3c(O)c2O)[C@H](O)[C@@H](O)[C@@H]1O [Baicalin, baicalin, reference compound] | – | – | 1.24 | – | – | –
7 | CN1C(=O)C(Cc2ccc(NCC(=O)NCCc3ccc(O)c(O)c3)cc2)NC(=O)C1CCc1ccccc1 (centres unmarked) [Compound 6e, DKP Phe(p-NH—CH2—CO—NH-dopamine)-N-MeHomoPhe] | – | – | – | −8.1 | 0.76 10^−8 cm/s | 3.15
8 | CN1C(=O)C(Cc2ccc(NC(=O)C3OC(Oc4cc5oc(-c6ccccc6)cc(=O)c5c(O)c4O)C(O)C(O)C3O)cc2)NC(=O)C1CC1CCCCC1 (centres unmarked) [Compound 5b, DKP Phe(p-NH—CO-baicalin)-N-MeCha] | −6.4 | 3.65 10^−7 cm/s | 6.09 | – | – | –
9 | CN1C(=O)C(Cc2ccc(NC(=O)C3OC(Oc4cc5oc(-c6ccccc6)cc(=O)c5c(O)c4O)C(O)C(O)C3O)cc2)NC(=O)C1CCc1ccccc1 (centres unmarked) [Compound 5e, DKP Phe(p-NH—CO-baicalin)-N-MeHomoPhe] | −9.3 | 0.05 10^−8 cm/s | 4.15 | – | – | –
10 | CN1C(=O)C(Cc2ccc(NC(=O)C3OC(Oc4cc5oc(-c6ccccc6)cc(=O)c5c(O)c4O)C(O)C(O)C3O)cc2)NC(=O)C1Cc1ccccc1 (centres unmarked) [Compound 5a, DKP Phe(p-NH—CO-baicalin)-N-MePhe] | −7.7 | 1.33 10^−8 cm/s | 2.42 | – | – | –
11 | NCCc1ccc(O)c(O)c1 [Dopamine, dopamine, reference compound] | – | – | – | – | – | 0.30
12 | CN1C(=O)C(Cc2ccc(NCC(=O)NCCc3ccc(O)c(O)c3)cc2)NC(=O)C1Cc1ccccc1 (centres unmarked) [Compound 6a, DKP Phe(p-NH—CH2—CO—NH-dopamine)-N-MePhe] | – | – | – | −7.4 | 3.61 10^−8 cm/s | 3.54
13 | CN1C(=O)C(Cc2ccc(NCC(=O)NCCc3ccc(O)c(O)c3)cc2)NC(=O)C1Cc1ccc2ccccc2c1 (centres unmarked) [Compound 6c, DKP Phe(p-NH—CH2—CO—NH-dopamine)-N-Me2Nal] | – | – | – | −6.9 | 11.5 10^−8 cm/s | 16.14
14 | CN1C(=O)C(Cc2ccc(NCC(=O)NCCc3ccc(O)c(O)c3)cc2)NC(=O)C1CC1CCCCC1 (centres unmarked) [Compound 6b, DKP Phe(p-NH—CH2—CO—NH-dopamine)-N-MeCha] | – | – | – | −7.6 | 2.28 10^−8 cm/s | 0.86
